The assay has as its system HL-60. Description: Cytotoxicity against human HL60 cells after 46 hrs by MTS assay. The class given is functional, cell-based. Conditions: HL-60, 46 h.

SMILES strings stand for the structures.

Compound `CC(C)=CCC[C@@H](C)[C@H]1CC[C@]23C(=O)O[C@]4(CC[C@]12C)C3=CC[C@H]1C(C)(C)[C@@H](O)CC[C@@]14C` registered an IC50 of 9.7 µM. This lies in the single-digit micromolar range.

Values taken from ChEMBL document CHEMBL2417517, “Isolation, structures, and biological activities of triterpenoids from a Penares sp. marine sponge” (J Nat Prod, 2013).
